Test results published in patent US20060117411A1, “Enhancing plant pathogen resistance via increasing BiP levels” (priority 1998, published 2006).

System: PR1 mRNA
Test: SA spraying of tobacco plants, Northern blot of PR1 mRNA
Type: in vivo, Nicotiana tabacum
Method: It has been shown that SA is involved in the induction of PR genes (reviewed by Malamy and Klessig, 1992) and that this signal molecule also induces the expression of ER chaperones (Denecke et al, 1995). We wanted to investigate whether ER chaperone induction is a consequence of the high synthesis rates of PR genes and used BiP as a model system. Tobacco plants were sprayed with SA (5 mM) and the exact timing of the SA-mediated induction of PR-gene PRI was compared to that of BiP. PR1 was chosen as a representative marker for SA-mediated induction of PR genes as its response to SA is faster and more pronounced than that of acidic chitinase, basic chitinase and basic β-1.3 glucanase (Vidal et al, 1997). […] In contrast SA-induced transcription of PR1 starts only after 6-8 hours and continues to accumulate upto 16 hours after treatment. At this time-point, BiP mRNA levels start to decrease again. We have shown previously that PR1 continuous to accumulate until 48 hours after SA treatment using the same experimental system (Vidal et al, 1997). […] BiP protein levels were also shown to increase (FIG. 7B), with a significant increase noticeable after 4-6 hours of induction.
To investigate further similarities and differences in the SA-mediated induction of BiP and PR genes, we tested if the presence of light is required for the induction. The rationale for this experiment was derived from the observation that SA inhibits catalase, resulting in an increase of active oxygen species in the plant, which would then induce PR genes such as PR1 (Chen et al, 1993). […]
We have shown that the SA-induced expression of PR1 is inhibited in a concentration dependent fashion by the presence of Erwinia carotovora culture filtrate containing cell wall-degrading enzymes (Vidal et al, 1997). […] Total RNA was extracted and the expression of chaperones was determined in relation to PR1. […]

O=C(O)c1ccccc1O [SA, Salicylic Acid]
PR1 induction during SA-treatment in the absence of light (SA 5 mM, 6 and 16 hours, dark vs light): almost completely abolished
time after which SA-induced transcription of PR1 starts (sprayed with SA 5 mM): 6 to 8 h
time up to which PR1 continues to accumulate (sprayed with SA 5 mM): ≤ 16 h
